Article PMC10672039, “Novel Ca-Chelating Peptides from Protein Hydrolysate of Antarctic Krill (Euphausia superba): Preparation, Characterization, and Calcium Absorption Efficiency in Caco-2 Cell Monolayer Model” (Marine Drugs, 2023)
Peptide text beside a SMILES is read from it.

Columns and labels:
Caco-2 cells = experiment: Cytotoxicity, MTT assay; assay type: cell-based, Human; details: 24 h treatment
Method: (§1) Caco-2 cells were obtained from the Shanghai Institute of Cell Biology (Shanghai, China) and cultured in EMEM with 10% fetal bovine serum, 1% antibiotic, and 1% nonessential amino acids in a humidified incubator at 37 °C with 5% CO2. The cell culture medium was replaced every two days with a new medium of equal volume. The Caco-2 cells were dispersed using trypsin-EDTA when they covered approximately 90% of the flask and were seeded on 6-well transwell culture plates with polyester membranes. The medium was replaced every other day with a new medium of equal volume. After being cultured for 21 days, the transepithelial electrical resistance (TEER) was determined to confirm the integrity of the Caco-2 cell monolayers. The Caco-2 cell monolayers were used for Ca transport experiments when the TEER exceeded 300 Ω·cm^2 [60, 66].
Cell cytotoxicity was determined using the MTT assay. […] Then, MTT solution (100 μL) was added per well and incubated for an additional 4 h. The MTT solution per well was replaced by an equal volume of DMSO solution to solubilize. Finally, the absorbance of the sample solution at 570 nm was measured.

Caco-2 cell monolayer = experiment: Ca transport across the Caco-2 cell monolayer; assay type: in vitro ADME, Human; details: Caco-2 monolayer, mean ± SD, n = 3
Method: as §1
The Ca transport in the Caco-2 cell monolayer model was analyzed using previous methods. After 21 days of incubation, the culture medium of Caco-2 cells was discarded from each well, and monolayers were immediately washed with HBSS buffer (without Ca and magnesium) two times. The Caco-2 cell monolayers were transferred to a new 6-well culture plate containing 2 mL of HBSS buffer, and 2 mL of HBSS buffer was also added to the apical side. After incubating for 30 min, the HBSS on the apical side was replaced with 2 mL of HBSS containing VERG-Ca chelate (200 μM) or Ca (150 μg/mL), and the HBSS on the basolateral side was replaced with an equal volume of fresh HBSS buffer. After incubation for 2 h, 1 mL of HBSS in the basolateral side was removed to determine Ca content at the designed time (30, 60,120, and 180 min). At the same time, fresh HBSS buffer (1 mL) was added to the basolateral side to maintain a constant volume. The content of Ca was determined by atomic absorption spectrometry using HNO3 and HClO4 as the oxidizers.
In the experiments on the effects of vitamin D3 and phytate on Ca absorption, dietary factors (vitamin D3 and phytate) were first premixed with VERG-Ca chelate or CaCl2, respectively, at a mass ratio of 1:1. […]

Row | SMILES | effect on viability of Caco-2 cells (Caco-2 cells; 250 μM, vs control group (p < 0.05)) | effect on viability of Caco-2 cells (Caco-2 cells; 50–200 μM, vs control group) | absorption amount of Ca with phytate (Caco-2 cell monolayer; 180 min (stated for CaCl2; not restated for the chelate), premixed with phytate at mass ratio 1:1) [μg/mg protein] | quantity of Ca of transport / absorption amount of Ca (Caco-2 cell monolayer; 180 min, apical to basolateral, HBSS, VERG-Ca chelate 200 μM or Ca 150 μg/mL, atomic absorption spectrometry) [μg/mg protein] | absorption amount of Ca with vitamin D3 (Caco-2 cell monolayer; 180 min, premixed with vitamin D3 at mass ratio 1:1) [μg/mg protein]
1 | CC(C)[C@H](N)C(=O)N[C@@H](CCC(=O)O)C(=O)N[C@@H](CCCNC(=N)N)C(=O)NCC(=O)O [ACP4, Val-Glu-Arg-Gly] (H-VERG-OH) | significantly decrease the viability | no significant effect on cell viability |  |  | 
2 | [Ca+2].[Cl-].[Cl-] [CaCl2] |  |  | 2.02 ± 0.24 | 2.96 ± 0.28 | 5.14 ± 0.23
